Assay results published in US20240228458A1, “PYRIMIDINE DERIVATIVE HAVING PROTEIN KINASE INHIBITORY ACTIVITY, AND THERAPEUTIC PHARMACEUTICAL COMPOSITION COMPRISING SAME” (THERAPEX CO., LTD., priority 2021, published 2024).

Assays:
Format in all cases: cell-based
[1] = tested on: Ba/F3 cells expressing EGFR-wt; assay: Growth inhibition (GI50) of Ba/F3 cells expressing EGFR-wt, Celltiter glo; details: Mus musculus, BaF3, 72 h
Procedure, shortened: (§1)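 Antiproliferative activity was assessed in EGFR-mutant or wild-type Ba/F3 cells over 72 h at 37 °C with 5% CO2. Cell viability was determined by CellTiter-Glo, and GI50 taken as the compound concentration inhibiting growth by 50%.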

[2] = tested on: Ba/F3 cells expressing del19/T790M/C797S (EGFR-DTC); assay: Growth inhibition (GI50) of Ba/F3 cells expressing del19/T790M/C797S (EGFR-DTC), Celltiter glo; details: Mus musculus, BaF3, 72 h
Procedure, shortened: as §1

[3] = tested on: Ba/F3 cells expressing L858R/T790M/C797S (EGFR-LTC); assay: Growth inhibition (GI50) of Ba/F3 cells expressing L858R/T790M/C797S (EGFR-LTC), Celltiter glo; details: Mus musculus, BaF3, 72 h
Procedure, shortened: as §1

parental Ba/F3 cell line = assay: Growth inhibition (GI50) of the parental Ba/F3 cell line (not introduced with EGFR variants), Celltiter glo; details: Mus musculus, BaF3, 72 h, parental Ba/F3 cells
Procedure, shortened: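 Parental Ba/F3 cells (100,000 cells/ml) were treated with 10-point, 4-fold compound dilutions (0.5% DMSO; top stock 2 mM) for 72 h at 37 °C, 5% CO2. Viability was read by CellTiter-Glo; GI50 is the concentration (μM) giving 50% growth inhibition.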

SMILES | GI50 [1] [nM] | GI50 [2] [nM] | GI50 [3] [nM] | GI50 (parental Ba/F3 cell line) [nM]
COc1cc(N2CCC(N3CCN(C)CC3)CC2)c(Cl)cc1Nc1ncc(Br)c(Nc2cc(C)ccc2NS(C)(=O)=O)n1 [Example 107, N-(2-((5-bromo-2-((5-chloro-2-methoxy-4-(4-(4-methylpiperazin-1-yl)piperidin-1-yl)phenyl)amino)pyrimidin-4-yl)amino)-4-methylphenyl)methanesulfonamide] | 500 to 2000 | 25 to 100 | 100 to 500 | 500 to 2000
COc1nc(N2CCC(C)(C)CC2)ccc1Nc1ncc(Br)c(Nc2ccc(F)cc2NS(C)(=O)=O)n1 [Example 32, N-(2-((5-bromo-2-((6-(4,4-dimethylpiperidin-1-yl)-2-methoxypyridin-3-yl)amino)pyrimidin-4-yl)amino)-5-fluorophenyl)methanesulfonamide] | 2000 to 10000 | 2000 to 10000 | 2000 to 10000 | 2000 to 10000
COc1nc(N2CCC(N3CCN(C)CC3)CC2)ccc1Nc1ncc(Br)c(Nc2ccc(F)cc2NS(C)(=O)=O)n1 [Example 28, N-(2-((5-bromo-2-((2-methoxy-6-(4-(4-methylpiperazin-1-yl)piperidin-1-yl)pyridin-3-yl)amino)pyrimidin-4-yl)amino)-5-fluorophenyl)methanesulfonamide] | 2000 to 10000 | 500 to 2000 | 500 to 2000 | 2000 to 10000
COc1nc(N2CCC(N3CCOCC3)CC2)ccc1Nc1ncc(Br)c(Nc2ccc(F)cc2NS(C)(=O)=O)n1 [Example 31, N-(2-((5-bromo-2-((2-methoxy-6-(4-morpholinopiperidin-1-yl)pyridin-3-yl)amino)pyrimidin-4-yl)amino)-5-fluorophenyl)methanesulfonamide] | 2000 to 10000 | 500 to 2000 | 2000 to 10000 | 2000 to 10000
COc1nc(N2CCC(N3CCN(C)CC3)CC2)c(C)cc1Nc1ncc(Cl)c(Nc2cc(Cl)ccc2NS(C)(=O)=O)n1 [Example 83, N-(4-chloro-2-((5-chloro-2-((2-methoxy-5-methyl-6-(4-(4-methylpiperazin-1-yl)piperidin-1-yl)pyridin-3-yl)amino)pyrimidin-4-yl)amino)phenyl)methanesulfonamide] | 500 to 2000 | 100 to 500 | 100 to 500 | 2000 to 10000
COc1cc(N(C)CCCN2CCN(C)CC2)c(C)cc1Nc1ncc(Cl)c(Nc2cc(Cl)c(Cl)cc2NS(C)(=O)=O)n1 [Example 105, N-(4,5-dichloro-2-((5-chloro-2-((2-methoxy-5-methyl-4-(methyl(3-(4-methylpiperazin-1-yl)propyl)amino)phenyl)amino)pyrimidin-4-yl)amino)phenyl)methanesulfonamide] | > 10000 | > 10000 | > 10000 | > 10000
CN1CCN(C2CCN(c3ncc(Nc4ncc(Cl)c(N(c5ccc6scnc6c5NS(C)(=O)=O)S(C)(=O)=O)n4)cc3F)CC2)CC1 [Example 113, N-(5-chloro-2-((5-fluoro-6-(4-(4-methylpiperazin-1-yl)piperidin-1-yl)pyridin-3-yl)amino)pyrimidin-4-yl)-N-(4-(methylsulfonamido)benzo[d]thiazol-5-yl)methanesulfonamide] | 2000 to 10000 | 500 to 2000 | 500 to 2000 | 2000 to 10000
COc1nc(N2CCC(N3CCOCC3)CC2)ccc1Nc1ncc(Cl)c(Nc2ccc3ncccc3c2NS(C)(=O)=O)n1 [Example 117, N-(6-((5-chloro-2-((2-methoxy-6-(4-morpholinopiperidin-1-yl)pyridin-3-yl)amino)pyrimidin-4-yl)amino)quinolin-5-yl)methanesulfonamide] | 500 to 2000 | 500 to 2000 | 500 to 2000 | 2000 to 10000
COc1nc(N2CCS(=O)(=O)CC2)ccc1Nc1ncc(Cl)c(Nc2ccc3nccnc3c2P(C)(C)=O)n1 [Example 129, 4-(5-((5-chloro-4-((5-(dimethylphosphoryl)quinoxalin-6-yl)amino)pyrimidin-2-yl)amino)-6-methoxypyridin-2-yl)thiomorpholine 1,1-dioxide] | 2000 to 10000 | 2000 to 10000 | 2000 to 10000 | > 10000
CN1CCN(C2CCN(c3ccc4cc(Nc5ncc(Cl)c(Nc6cc(Cl)c(Cl)cc6NS(C)(=O)=O)n5)ccc4n3)CC2)CC1 [Example 102, N-(4,5-dichloro-2-((5-chloro-2-((2-(4-(4-methylpiperazin-1-yl)piperidin-1-yl)quinolin-6-yl)amino)pyrimidin-4-yl)amino)phenyl)methanesulfonamide] | 500 to 2000 | 500 to 2000 | 100 to 500 | 2000 to 10000
COc1nc(N2CCN(C3CCN(C)CC3)CC2)c(C(F)(F)F)cc1Nc1ncc(Br)c(Nc2ccc(F)cc2NS(C)(=O)=O)n1 [Example 37] | > 10000 | > 10000 | > 10000 | > 10000
COc1nc(C2CCCN(C)CC2)ccc1Nc1ncc(Br)c(Nc2ccc(F)cc2NS(C)(=O)=O)n1 (stereo not shown) [Example 145, N-(2-((5-bromo-2-((2-methoxy-6-(1-methylazepan-4-yl)pyridin-3-yl)amino)pyrimidin-4-yl)amino)-5-fluorophenyl)methanesulfonamide] | 2000 to 10000 | 100 to 500 | 100 to 500 | 2000 to 10000
CN1CCN(C2CCN(c3ncc(Nc4ncc(Br)c(Nc5ccc(F)cc5NS(C)(=O)=O)n4)cc3F)CC2)CC1 [Example 25, N-(2-((5-bromo-2-((5-fluoro-6-(4-(4-methylpiperazin-1-yl)piperidin-1-yl)pyridin-3-yl)amino)pyrimidin-4-yl)amino)-5-fluorophenyl)methanesulfonamide] | 500 to 2000 | 100 to 500 | 100 to 500 | 500 to 2000
COc1nc(N2CCOCC2)ccc1Nc1ncc(Br)c(Nc2ccc(F)cc2NS(C)(=O)=O)n1 [Example 29, N-(2-((5-bromo-2-((2-methoxy-6-morpholinopyridin-3-yl)amino)pyrimidin-4-yl)amino)-5-fluorophenyl)methanesulfonamide] | > 10000 | > 10000 | > 10000 | > 10000

Second part, led by results:

GI50 [1] [nM] | GI50 [2] [nM] | GI50 [3] [nM] | SMILES | GI50 (parental Ba/F3 cell line) [nM]
100 to 500 | 25 to 100 | 25 to 100 | COc1cc(N2CCC(N3CCN(C)CC3)CC2)c(Cl)cc1Nc1ncc(Br)c(Nc2ccc(F)cc2NS(C)(=O)=O)n1 [Example 26, N-(2-((5-bromo-2-((5-chloro-2-methoxy-4-(4-(4-methylpiperazin-1-yl)piperidin-1-yl)phenyl)amino)pyrimidin-4-yl)amino)-5-fluorophenyl)methanesulfonamide] | 2000 to 10000
100 to 500 | 25 to 100 | 1 to 25 | Cc1ccc(NS(C)(=O)=O)c(Nc2nc(Nc3cc(C)c(N4CCC(N5CCN(C)CC5)CC4)cc3Cl)ncc2Br)c1 [Example 109, N-(2-((5-bromo-2-((2-chloro-5-methyl-4-(4-(4-methylpiperazin-1-yl)piperidin-1-yl)phenyl)amino)pyrimidin-4-yl)amino)-4-methylphenyl)methanesulfonamide] | 500 to 2000
100 to 500 | 25 to 100 | 100 to 500 | CN1CCN(C2CCN(c3ccc(Nc4ncc(Cl)c(Nc5ccc6nccnc6c5P(C)(C)=O)n4)cc3F)CC2)CC1 [Example 125, (6-((5-chloro-2-((3-fluoro-4-(4-(4-methylpiperazin-1-yl)piperidin-1-yl)phenyl)amino)pyrimidin-4-yl)amino)quinoxalin-5-yl)dimethylphosphine oxide] | 100 to 500
100 to 500 | 100 to 500 | 25 to 100 | COc1cc(N2CCC(N3CCN(C)CC3)CC2)c(C)cc1Nc1ncc(Cl)c(N(c2ccc3scnc3c2NS(C)(=O)=O)S(C)(=O)=O)n1 [Example 110, N-(5-chloro-2-((2-methoxy-5-methyl-4-(4-(4-methylpiperazin-1-yl)piperidin-1-yl)phenyl)amino)pyrimidin-4-yl)-N-(4-(methylsulfonamido)benzo[d]thiazol-5-yl)methanesulfonamide] | 500 to 2000
100 to 500 | 25 to 100 | 25 to 100 | CN1CCN(C2CCN(c3ccc(Nc4ncc(Cl)c(Nc5ccccc5CS(C)(=O)=O)n4)cc3F)CC2)CC1 [Example 63] | 25 to 100
100 to 500 | 1 to 25 | 1 to 25 | COc1cc(N2CCC(N3CCN(C)CC3)CC2)c(C)cc1Nc1ncc(Cl)c(Nc2cc(Cl)ccc2-c2c[nH]nn2)n1 [Example 166] | 500 to 2000
100 to 500 | 25 to 100 | 25 to 100 | CN1CCN(C2CCN(c3ncc(Nc4ncc(Cl)c(Nc5ccc6nccnc6c5P(C)(C)=O)n4)cc3F)CC2)CC1 [Example 124, (6-((5-chloro-2-((5-fluoro-6-(4-(4-methylpiperazin-1-yl)piperidin-1-yl)pyridin-3-yl)amino)pyrimidin-4-yl)amino)quinoxalin-5-yl)dimethylphosphine oxide] | 100 to 500
100 to 500 | 100 to 500 | 100 to 500 | COc1cc(N2CCC(N3CCN(C)CC3)CC2)c(Cl)cc1Nc1ncc(Cl)c(Nc2ccccc2NS(C)(=O)=O)n1 [Example 7, N-(2-((5-chloro-2-((5-chloro-2-methoxy-4-(4-(4-methylpiperazin-1-yl)piperidin-1-yl)phenyl)amino)pyrimidin-4-yl)amino)phenyl)methanesulfonamide] | 500 to 2000
